Key:
[1] = target: GDP-bound HRAS wild-type protein (Homo sapiens, UniProt P01112); test: Binding to HRAS by surface plasmon resonance (SPR), Single Cycle Kinetics; conditions: SPR KD ratio HRAS/KRAS, class symbols
[2] = target: GDP-bound KRAS wild-type protein (Homo sapiens, UniProt P01116); test: Binding to KRAS by surface plasmon resonance (SPR), Single Cycle Kinetics; conditions: SPR Single Cycle Kinetics, GDP-bound KRAS wild-type protein, 1:1 binding model; read-out: KRAS KD
[3] = target: GDP-bound NRAS wild-type protein (Homo sapiens, UniProt P01111); test: Binding to NRAS by surface plasmon resonance (SPR), Single Cycle Kinetics; conditions: SPR KD ratio NRAS/KRAS, class symbols
GDP-bound NRAS wild-type protein, sequence (P01111 whole entry): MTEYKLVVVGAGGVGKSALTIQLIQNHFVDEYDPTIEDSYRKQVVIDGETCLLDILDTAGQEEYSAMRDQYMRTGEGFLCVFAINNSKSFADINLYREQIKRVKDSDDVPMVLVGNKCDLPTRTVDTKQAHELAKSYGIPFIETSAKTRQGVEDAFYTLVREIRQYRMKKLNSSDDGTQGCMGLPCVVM

GDP-bound HRAS wild-type protein, sequence (P01112 whole entry): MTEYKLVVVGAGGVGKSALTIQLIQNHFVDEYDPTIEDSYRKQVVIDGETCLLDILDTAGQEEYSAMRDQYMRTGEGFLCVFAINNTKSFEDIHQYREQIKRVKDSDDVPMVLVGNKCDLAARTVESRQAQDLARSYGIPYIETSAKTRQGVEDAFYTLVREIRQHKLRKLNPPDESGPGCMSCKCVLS
GDP-bound KRAS wild-type protein, sequence (P01116 whole entry): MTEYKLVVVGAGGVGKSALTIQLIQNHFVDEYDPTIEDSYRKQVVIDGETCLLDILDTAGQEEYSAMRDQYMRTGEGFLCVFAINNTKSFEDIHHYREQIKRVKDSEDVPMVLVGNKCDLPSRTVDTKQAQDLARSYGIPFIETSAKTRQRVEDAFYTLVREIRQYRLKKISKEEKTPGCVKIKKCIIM

SMILES | HRAS/KRAS (ratio of KD value with respect to GDP-bound HRAS wild-type protein to KD value with respect to KRAS) [1] | Kd [2] [nM] | NRAS/KRAS (ratio of KD value with respect to GDP-bound NRAS wild-type protein to KD value with respect to KRAS) [3]
CCO[C@@H]1C[C@H]2C(=O)NC3(CC(C)(C)C3)C(=O)N(C)[C@@H](C3CCCC3)C(=O)N(C)[C@H](C(=O)N(C)CC)CC(=O)N(C)[C@@H](CC)C(=O)N[C@@H]([C@@H](C)CC)C(=O)N(C)CC(=O)N(C)[C@H]3C/C=C\CCN(C3=O)[C@@H](Cc3ccc(C(F)(F)F)cc3)C(=O)N(C)CC(=O)N[C@@H](CCc3ccc(Cl)c(Cl)c3)C(=O)N2C1 [PP2822] | A (a compound having 10 or more and less than 20 is denoted as A) | 0.26 | A (a compound having 10 or more and less than 20 is denoted as A)
CCO[C@@H]1C[C@H]2C(=O)NC3(CC(C)(C)C3)C(=O)N(C)[C@@H](C3CCCC3)C(=O)N(C)[C@H](C(=O)N(C)CC)CC(=O)N(C)[C@@H](CC)C(=O)N[C@@H]([C@@H](C)CC)C(=O)N(C)CC(=O)N(C)[C@H]3C/C=C\CCN(C3=O)[C@@H](Cc3ccc(C(F)(F)F)cc3)C(=O)N(C)CC(=O)N[C@@H](CCc3ccc(C(F)(F)F)c(Cl)c3)C(=O)N2C1 [PP2823] | A (a compound having 10 or more and less than 20 is denoted as A) | 0.13 | A (a compound having 10 or more and less than 20 is denoted as A)
CCO[C@@H]1C[C@H]2C(=O)NC3(CCC3)C(=O)N(C)[C@@H](C3CCCC3)C(=O)N(C)[C@H](C(=O)N(C)CC)CC(=O)N(C)[C@@H](CC3CCC3)C(=O)N[C@@H]([C@@H](C)CC)C(=O)N(C)CC(=O)N(C)[C@H]3C/C=C\CCN(C3=O)[C@@H](Cc3ccc(C(F)(F)F)cc3)C(=O)N(C)CC(=O)N[C@@H](CCc3ccc(C(F)(F)F)c(OC)c3)C(=O)N2C1 [PP2825] | B (a compound having 3 or more and less than 10 is denoted as B) | 0.12 | A (a compound having 10 or more and less than 20 is denoted as A)
CCO[C@@H]1C[C@H]2C(=O)NC3(CCC3)C(=O)N(C)[C@@H](C3CCCC3)C(=O)N(C)[C@H](C(=O)N(C)CC)CC(=O)N(C)[C@@H](CC3CCC3)C(=O)N[C@@H]([C@@H](C)CC)C(=O)N(C)CC(=O)N(C)[C@H]3C/C=C\CCN(C3=O)[C@@H](Cc3ccc(C(F)(F)F)cc3)C(=O)N(C)CC(=O)N[C@@H](CCc3ccc(C(F)(F)F)c(Cl)c3)C(=O)N2C1 [PP2826] | A (a compound having 10 or more and less than 20 is denoted as A) | 0.14 | A (a compound having 10 or more and less than 20 is denoted as A)
CCO[C@@H]1C[C@H]2C(=O)NC3(CC(C)(C)C3)C(=O)N(C)[C@@H](C3CCCC3)C(=O)N(C)[C@H](C(=O)N(C)CC)CC(=O)N(C)[C@@H](CC(C)C)C(=O)N[C@@H]([C@@H](C)CC)C(=O)N(C)CC(=O)N(C)[C@H]3C/C=C\CCN(C3=O)[C@@H](Cc3ccc(C(F)F)cc3)C(=O)N(C)CC(=O)N[C@@H](CCc3ccc(Cl)c(Cl)c3)C(=O)N2C1 [PP2827] | B (a compound having 3 or more and less than 10 is denoted as B) | 0.38 | A (a compound having 10 or more and less than 20 is denoted as A)
CCO[C@@H]1C[C@H]2C(=O)NC3(CC(C)(C)C3)C(=O)N(C)[C@@H](C3CCCC3)C(=O)N(C)[C@H](C(=O)N(C)CC)CC(=O)N(C)[C@@H](CC(C)C)C(=O)N[C@@H]([C@@H](C)CC)C(=O)N(C)CC(=O)N(C)[C@H]3C/C=C\CCN(C3=O)[C@@H](Cc3ccc(C(F)F)cc3)C(=O)N(C)CC(=O)N[C@@H](CCc3ccc(C(F)(F)F)c(OC)c3)C(=O)N2C1 [PP2828] | A (a compound having 10 or more and less than 20 is denoted as A) | 0.11 | A (a compound having 10 or more and less than 20 is denoted as A)
CCO[C@@H]1C[C@H]2C(=O)NC3(CC(C)(C)C3)C(=O)N(C)[C@@H](C3CCCC3)C(=O)N(C)[C@H](C(=O)N(C)CC)CC(=O)N(C)[C@@H](CC(C)C)C(=O)N[C@@H]([C@@H](C)CC)C(=O)N(C)CC(=O)N(C)[C@H]3C/C=C\CCN(C3=O)[C@@H](Cc3ccc(C(F)F)cc3)C(=O)N(C)CC(=O)N[C@@H](CCc3ccc(C(F)(F)F)c(Cl)c3)C(=O)N2C1 [PP2829] | A (a compound having 10 or more and less than 20 is denoted as A) | 0.095 | A (a compound having 10 or more and less than 20 is denoted as A)
CCCOC[C@H]1C(=O)N[C@@H]([C@@H](C)CC)C(=O)N(C)CC(=O)N(C)[C@H]2C/C=C\CCN(C2=O)[C@@H](Cc2ccc(C(F)(F)F)cc2)C(=O)N(C)CC(=O)N[C@@H](CCc2ccc(C(F)(F)F)c(Cl)c2)C(=O)N2C[C@H](OCC)C[C@H]2C(=O)NC2(CCC2)C(=O)N(C)[C@@H](C2CCCC2)C(=O)N(C)[C@H](C(=O)N(C)CCC)CC(=O)N1C [PP2831] | A (a compound having 10 or more and less than 20 is denoted as A) | 0.11 | A (a compound having 10 or more and less than 20 is denoted as A)
CCO[C@@H]1C[C@H]2C(=O)NC3(CC(C)(C)C3)C(=O)N(C)[C@@H](C3CCCC3)C(=O)N(C)[C@H](C(=O)N(C)C)CC(=O)N(C)[C@@H](CC(F)(F)F)C(=O)N[C@@H]([C@@H](C)CC)C(=O)N(C)CC(=O)N(C)[C@H]3C/C=C\CCN(C3=O)[C@@H](Cc3ccc(C(F)(F)F)cc3)C(=O)N(C)CC(=O)N[C@@H](CCc3ccc(Cl)c(Cl)c3)C(=O)N2C1 [PP2832] | A (a compound having 10 or more and less than 20 is denoted as A) | 0.18 | A (a compound having 10 or more and less than 20 is denoted as A)
CCO[C@@H]1C[C@H]2C(=O)NC3(CC(C)(C)C3)C(=O)N(C)[C@@H](C3CCCC3)C(=O)N(C)[C@H](C(=O)N(C)C)CC(=O)N(C)[C@@H](CC(F)(F)F)C(=O)N[C@@H]([C@@H](C)CC)C(=O)N(C)CC(=O)N(C)[C@H]3C/C=C\CCN(C3=O)[C@@H](Cc3ccc(C(F)(F)F)cc3)C(=O)N(C)CC(=O)N[C@@H](CCc3ccc(C(F)(F)F)c(Cl)c3)C(=O)N2C1 [PP2833] | A (a compound having 10 or more and less than 20 is denoted as A) | 0.052 | A (a compound having 10 or more and less than 20 is denoted as A)
CCO[C@@H]1C[C@H]2C(=O)NC3(CC(C)(C)C3)C(=O)N(C)[C@@H](C3CCCC3)C(=O)N(C)[C@H](C(=O)N(C)CC)CC(=O)N(C)[C@@H](COC)C(=O)N[C@@H]([C@@H](C)CC)C(=O)N(C)CC(=O)N(C)[C@H]3C/C=C\CCN(C3=O)[C@@H](Cc3ccc(C(F)(F)F)cc3)C(=O)N(C)CC(=O)N[C@@H](CCc3ccc(Cl)c(Cl)c3)C(=O)N2C1 [PP2835] | A (a compound having 10 or more and less than 20 is denoted as A) | 0.19 | A (a compound having 10 or more and less than 20 is denoted as A)
CCO[C@@H]1C[C@H]2C(=O)NC3(CC(C)(C)C3)C(=O)N(C)[C@@H](C3CCCC3)C(=O)N(C)[C@H](C(=O)N(C)CC)CC(=O)N(C)[C@@H](COC)C(=O)N[C@@H]([C@@H](C)CC)C(=O)N(C)CC(=O)N(C)[C@H]3C/C=C\CCN(C3=O)[C@@H](Cc3ccc(C(F)(F)F)cc3)C(=O)N(C)CC(=O)N[C@@H](CCc3ccc(C(F)(F)F)c(Cl)c3)C(=O)N2C1 [PP2836] | A (a compound having 10 or more and less than 20 is denoted as A) | 0.065 | A (a compound having 10 or more and less than 20 is denoted as A)
CCO[C@@H]1C[C@H]2C(=O)NC3(CCCC3)C(=O)N(C)[C@@H](C3CCCC3)C(=O)N(C)[C@H](C(=O)N(C)C)CC(=O)N(C)[C@@H](CC(C)C)C(=O)N[C@@H]([C@@H](C)CC)C(=O)N(C)CC(=O)N(C)[C@H]3C/C=C\CCN(C3=O)[C@@H](Cc3ccc(C(F)(F)F)cc3)C(=O)N(C)CC(=O)N[C@@H](CCc3ccc(Cl)c(Cl)c3)C(=O)N2C1 [PP2837] | A (a compound having 10 or more and less than 20 is denoted as A) | 0.21 | AA (a compound having 20 or more is denoted as AA)
CCO[C@@H]1C[C@H]2C(=O)NC3(CCCC3)C(=O)N(C)[C@@H](C3CCCC3)C(=O)N(C)[C@H](C(=O)N(C)C)CC(=O)N(C)[C@@H](CC(C)C)C(=O)N[C@@H]([C@@H](C)CC)C(=O)N(C)CC(=O)N(C)[C@H]3C/C=C\CCN(C3=O)[C@@H](Cc3ccc(C(F)(F)F)cc3)C(=O)N(C)CC(=O)N[C@@H](CCc3ccc(C(F)(F)F)c(Cl)c3)C(=O)N2C1 [PP2838] | A (a compound having 10 or more and less than 20 is denoted as A) | 0.066 | AA (a compound having 20 or more is denoted as AA)
